Data reported in patent US20250122207A1, “AP2 ASSOCIATED KINASE 1 INHIBITORS AND USES THEREOF” (Satellos Bioscience Inc., priority 2023, published 2025).

Legend:
AAK1 = AAK1 (Homo sapiens, UniProt Q2M2I8); test: pAP2M1 cell-based assay (in-cell Western); details: Hela cells co-transfected with AP2M1 and AAK1, 3 hr treatment; class symbols; read-out: AAK1 In-cell Western: IC50
From the text: pAP2M1 Cell-Based Assay (in-Cell Western):
The plate was read on Licor Odyssey CLx imaging system (LICOR) to acquire fluorescence intensity at 700 channel and 800 channel.
Data analysis: Fluorescence intensity at 700 channel served as internal standard and 800 channel were normalized with 700 channel.

[1] = target: T1, GAK (amino acids Q25-N335) (Homo sapiens, UniProt O14976); test: GAK pSENs assay; format: biochemical; details: class symbols; read-out: GAK pSENs:IC50
T1 construct: against GAK (amino acids Q25-N335); 6His (N, cleaved yes)
T1 sequence (O14976 25-335): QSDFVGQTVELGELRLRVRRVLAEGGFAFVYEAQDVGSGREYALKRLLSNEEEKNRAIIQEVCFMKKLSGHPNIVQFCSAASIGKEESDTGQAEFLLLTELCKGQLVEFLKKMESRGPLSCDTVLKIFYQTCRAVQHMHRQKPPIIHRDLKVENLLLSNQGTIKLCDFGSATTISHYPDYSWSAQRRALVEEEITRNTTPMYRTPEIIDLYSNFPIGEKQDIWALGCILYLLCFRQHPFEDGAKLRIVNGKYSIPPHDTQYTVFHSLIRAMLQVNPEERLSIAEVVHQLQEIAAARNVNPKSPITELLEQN
Protocol: The recombinant proteins were independently expressed in Escherichia coli BL21(DE3) cells cultured in Luria-Bertani (LB) medium until OD600 reached 0.6-0.8, then cooled to 15° C. and supplemented with 0.5 mM isopropyl 1-thio-D-galactopyranoside (IPTG) induce protein expression 16 h. Cells were harvested and resuspended in lysis buffer (50 mM HEPES pH 7.5, 500 mM NaCl, 5 mM imidazole, 5% glycerol, 0.5 mM Tris (2-carboxyethyl) phosphine (TCEP), cOmplete Protease Inhibitor Tablet (Roche)) and lysed by microfludics high pressure homogenizer (UH-06, Union-Biotech). Proteins were purified using […] chromatography (His FF column, Bestchrom) and eluted stepwise in binding buffer with 20-300 mM imidazole. Removal of the hexahistidine tag was performed at 4° C. overnight using recombinant TEV protease and reacted with BirA to obtain the corresponding biotinylated-AAK1, BIKE or GAK proteins. Further separated in the reverse Strep column (Strep-Tactin® XT, IBA). The Biotin elution sample was collected containing untagged biotinylated protein was then purified by Ion-exchange chromatography (Mono Q 10/100 GL, Cytiva) and Size-exclusion chromatography (HiLoad 16/600 Superdex 200 pg, Cytiva). The pure protein was stored in a storage buffer 50 mM HEPES (pH 7.5), 300 mM NaCl, 5% glycerol at −80° C. Protein were characterized by SDS-PAGE, LC-MS and aSEC.
This example describes one illustrative method for determining the IC50 of the compounds of the present invention against GAK (amino acids Q25-N335).

[2] = target: T2, AAK1 (amino acids T27-A365) (Homo sapiens, UniProt Q2M2I8); test: AAK1 pSENs assay; format: biochemical; details: class symbols; read-out: AAK1 pSENs: EIC50
T2 construct: against AAK1 (amino acids T27-A365); 6His (N, cleaved yes)
T2 sequence (Q2M2I8 27-365): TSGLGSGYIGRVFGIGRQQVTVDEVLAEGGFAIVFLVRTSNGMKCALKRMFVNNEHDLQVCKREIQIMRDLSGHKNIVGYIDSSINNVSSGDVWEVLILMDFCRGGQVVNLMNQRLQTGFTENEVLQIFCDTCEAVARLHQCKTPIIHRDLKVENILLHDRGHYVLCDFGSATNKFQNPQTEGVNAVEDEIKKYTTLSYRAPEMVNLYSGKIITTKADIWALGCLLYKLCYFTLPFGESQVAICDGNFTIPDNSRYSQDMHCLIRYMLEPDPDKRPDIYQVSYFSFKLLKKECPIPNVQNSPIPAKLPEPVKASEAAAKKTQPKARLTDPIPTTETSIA
In short: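 Biotinylated, tag-free AAK1 T27-A365 expressed in E. coli was held at 20 nM in enzyme solution (HEPES pH 7.5, 10 mM MgCl2, DTT, EGTA, Brij35, BSA) and preincubated with compound for 15 min at 25 °C. The reaction was started with an equal volume of substrate solution containing 30 uM AQT0759 peptide and 70 uM ATP. IC50 determined.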

[3] = target: T3, BIKE (amino acids S38-E345) (K320A, K321A) (Homo sapiens, UniProt Q9NSY1, K320A/K321A); test: BIKE pSENs assay; format: biochemical; details: class symbols; read-out: BIKE pSENs: IC50
T3 construct: against BIKE (amino acids S38-E345) (K320A, K321A); 6His (N, cleaved yes)
T3 sequence (Q9NSY1 38-345 K320A/K321A): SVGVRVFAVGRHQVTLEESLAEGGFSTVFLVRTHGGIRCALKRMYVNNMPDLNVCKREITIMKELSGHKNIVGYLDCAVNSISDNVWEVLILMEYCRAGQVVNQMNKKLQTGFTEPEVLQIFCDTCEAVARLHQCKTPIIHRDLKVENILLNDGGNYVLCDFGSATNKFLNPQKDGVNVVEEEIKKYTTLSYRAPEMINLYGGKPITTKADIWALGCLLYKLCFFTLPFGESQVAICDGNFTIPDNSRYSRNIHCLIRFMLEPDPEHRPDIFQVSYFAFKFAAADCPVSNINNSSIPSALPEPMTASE
In short: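 E. coli-expressed, biotinylated, tag-free BIKE at 20 nM in HEPES pH 7.5 buffer with 10 mM MgCl2 preincubated with compound 15 min at 25° C. Reaction started with 30 uM AQT0759 sensor peptide and 40 uM ATP (concentrations before 1:1 mixing).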

Chain of AAK1 (Q2M2I8 whole entry): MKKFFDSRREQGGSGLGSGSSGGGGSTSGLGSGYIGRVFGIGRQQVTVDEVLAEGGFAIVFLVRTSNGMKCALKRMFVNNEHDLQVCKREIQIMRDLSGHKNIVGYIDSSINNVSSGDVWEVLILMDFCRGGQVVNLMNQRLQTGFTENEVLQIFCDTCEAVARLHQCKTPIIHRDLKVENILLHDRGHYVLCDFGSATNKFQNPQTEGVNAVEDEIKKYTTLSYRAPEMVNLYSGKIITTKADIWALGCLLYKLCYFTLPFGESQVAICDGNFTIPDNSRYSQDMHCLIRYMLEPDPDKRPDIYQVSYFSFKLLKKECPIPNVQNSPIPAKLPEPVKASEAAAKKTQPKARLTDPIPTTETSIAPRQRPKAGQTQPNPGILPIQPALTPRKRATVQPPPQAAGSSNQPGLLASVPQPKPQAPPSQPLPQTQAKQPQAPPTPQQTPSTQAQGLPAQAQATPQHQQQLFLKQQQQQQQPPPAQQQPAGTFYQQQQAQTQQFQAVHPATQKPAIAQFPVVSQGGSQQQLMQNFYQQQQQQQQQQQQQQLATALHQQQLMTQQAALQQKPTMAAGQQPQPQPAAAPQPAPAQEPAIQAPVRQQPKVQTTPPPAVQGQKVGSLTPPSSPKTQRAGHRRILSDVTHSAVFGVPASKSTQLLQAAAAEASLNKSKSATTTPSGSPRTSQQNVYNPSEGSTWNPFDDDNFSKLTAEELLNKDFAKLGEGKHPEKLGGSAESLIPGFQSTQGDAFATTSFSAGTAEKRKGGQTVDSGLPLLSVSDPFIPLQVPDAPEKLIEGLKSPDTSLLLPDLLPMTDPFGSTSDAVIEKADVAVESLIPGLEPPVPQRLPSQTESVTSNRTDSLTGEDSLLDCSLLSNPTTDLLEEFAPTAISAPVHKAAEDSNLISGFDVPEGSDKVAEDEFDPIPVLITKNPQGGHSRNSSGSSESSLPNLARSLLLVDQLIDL

| SMILES | IC50 (AAK1) [nM] | IC50 [1] [nM] | IC50 [2] [nM] | IC50 [3] [nM] |
| --- | --- | --- | --- | --- |
| CC(C)(C)OC(=O)N1CCC(N2C[C@H](OC(=O)N3CCN(c4ccn5ncc(-c6cccnc6OC6CC6)c5n4)CC3)CC2=O)CC1 [Compound I-31, (R)-1-(1-(tert-Butoxycarbonyl)piperidin-4-yl)-5-oxopyrrolidin-3-yl 4-(3-(2-cyclopropoxypyridin-3-yl)pyrazolo[1,5-a]pyrimidin-5-yl)piperazine-1-carboxylate] | > 1500 | 501 to 1500 | 151 to 500 | 151 to 500 |
| O=C1C[C@H](OC(=O)N2CCN(c3ccn4ncc(-c5cccnc5OC5CC5)c4n3)CC2)CN1CCOCc1ccccc1 [Compound I-37, [(3S)-1-(2-benzyloxyethyl)-5-oxo-pyrrolidin-3-yl]-4-[3-[2-(cyclopropoxy)-3-pyridyl]pyrazolo[1,5-a]pyrimidin-5-yl]piperazine-1-carboxylate] | 501 to 1500 | 501 to 1500 | 1 to 50 | 501 to 1500 |
| COc1ncccc1-c1cnn2ccc(N3CCN(C(=O)OC4CCNC4)CC3)nc12 (centres unmarked) [Compound I-5, Pyrrolidin-3-yl4-[3-(2-methoxy-3-pyridyl)pyrazolo[1,5-a]pyrimidin-5-yl]piperazine-1-carboxylate] | 151 to 500 | 501 to 1500 | 1 to 50 | 1 to 50 |
| Oc1ncccc1-c1cnn2ccc(N3CCNCC3)nc12 [Compound I-106, 3-(5-piperazin-1-ylpyrazolo[1,5-a]pyrimidin-3-yl)pyridin-2-ol] | > 1500 | > 1500 | 501 to 1500 | 151 to 500 |
| CC(C)(C)OC(=O)NCCNc1ccc2ncc(-c3cccnc3OC3CC3)n2n1 [Compound I-129, tert-butyl N-[2-[[3-[2-(cyclopropoxy)-3-pyridyl]imidazo[1,2-b]pyridazin-6-yl]amino]ethyl]carbamate] | 501 to 1500 | 151 to 500 | 1 to 50 | 51 to 150 |
| CN(CCNc1ccn2ncc(-c3cccnc3OC3CC3)c2n1)C(=O)OC(C)(C)C [Compound I-12, tert-butyl N-[2-[[3-[2-(Cyclopropoxy)-3-pyridyl]pyrazolo[1,5-a]pyrimidin-5-yl]amino]ethyl]-N-methyl-carbamate] | 151 to 500 | 501 to 1500 | 1 to 50 | 51 to 150 |
| C#C[C@]1(OC(=O)N2CCN(c3ccn4ncc(-c5cccnc5OC5CC5)c4n3)CC2)CCNC1 [Compound I-15, [(3R)-3-Ethynylpyrrolidin-3-yl]-4-[3-[2-(cyclopropoxy)-3-pyridyl]pyrazolo[1,5-a]pyrimidin-5-yl]piperazine-1-carboxylate] | 51 to 150 | 151 to 500 | 1 to 50 | 151 to 500 |
| CN1C[C@@H](OC(=O)N2CCN(c3ccn4ncc(-c5cc(OC(F)(F)F)cnc5OC5CC5)c4n3)CC2)CC1=O [Compound I-88] | > 1500 | 501 to 1500 | 1 to 50 | 151 to 500 |
| CC1(OC(=O)N2CCN(c3ccn4ncc(-c5ccc(C(N)=O)cc5)c4n3)CC2)COC1 [Compound I-3, (3-methyloxetan-3-yl)-4-[3-(4-carbamoylphenyl)pyrazolo[1,5-a]pyrimidin-5-yl]piperazine-1-carboxylate] | 501 to 1500 | 501 to 1500 | 1 to 50 | 51 to 150 |
| COc1cnc(OC2CC2)c(-c2cnn3ccc(N4CCN(C(=O)O[C@H]5CC(=O)N(C)C5)CC4)nc23)c1 [Compound I-87] | 151 to 500 | 501 to 1500 | 1 to 50 | 51 to 150 |
| CN1C[C@@H](OC(=O)N2CCN(c3ccn4ncc(-c5cccnc5O)c4n3)CC2)CC1=O [Compound I-98, [(3S)-1-methyl-5-oxo-pyrrolidin-3-yl]-4-[3-(2-hydroxy-3-pyridyl)pyrazolo[1,5-a]pyrimidin-5-yl]piperazine-1-carboxylate] | > 1500 | > 1500 | 151 to 500 | 501 to 1500 |
| COc1ncccc1-c1cnn2ccc(N3CCN(C(=O)OC4(C)CCNC4)CC3)nc12 (centres unmarked) [Compound I-8, (3-Methylpyrrolidin-3-yl)-4-[3-(2-methoxy-3-pyridyl)pyrazolo[1,5-a]pyrimidin-5-yl]piperazine-1-carboxylate] | 1 to 50 | 151 to 500 | 1 to 50 | 1 to 50 |
| CC(C)(C)OC(=O)N1CCN(c2ccn3ncc(-c4cccnc4O)c3n2)CC1 [Compound I-102, tert-butyl 4-[3-(2-hydroxy-3-pyridyl)pyrazolo[1,5-a]pyrimidin-5-yl]piperazine-1-carboxylate] | 501 to 1500 | > 1500 | 1 to 50 | 51 to 150 |
| CN(CCNc1ccn2ncc(-c3cccnc3OC3CC3)c2n1)C(=O)O[C@H]1CO[C@H]2OCC[C@H]21 [Compound I-71, (3R,3aS,6aR)-hexahydrofuro[2,3-b]furan-3-yl (2-((3-(2-cyclopropoxypyridin-3-yl)pyrazolo[1,5-a]pyrimidin-5-yl)amino)ethyl)(methyl)carbamate] | 501 to 1500 | 501 to 1500 | 1 to 50 | 501 to 1500 |
